This is an account of results in patent US9555049B2, “Arene ruthenium (II) derivatives containing iminophosphorane ligands and their use in cancer therapy” (Research Foundation of the City University of New York, priority 2014, dated 2017).

For one data set, the system named is pancreas MiaPaca2. Description: MTT toxicity assay, MiaPaca2. It is filed as cell-based, human. The following applies: 24 h incubation, mean ± SD (n = 4). As to the method:
(§1) Compounds were added at different concentrations in triplicate.
A general note: Tetrazolium dyes change colour on reduction, which living cells bring about.

The subject of data set [1] is non-tumorigenic human embryonic kidney cells HEK293T. Description: MTT toxicity assay, HEK-293T. The class given is cell-based. Conditions: 24 h incubation, mean ± SD (n = 4). On the procedure: In order to assess the compounds' selectivity for cancerous cells with respect to normal cell lines, the compounds were also screened for their antiproliferative effects on the non-tumorigenic human embryonic kidney cells HEK293T.
(§2) A549 (lung carcinoma), MiaPaca2 (pancreatic carcinoma), MDA-MB-231 (Triple negative breast carcinoma) and 293T (non-tumoral embryonic kidney cells) were cultured in DMEM medium supplemented with 10% FCS, L-glutamine and penicillin/streptomycin. Media for A549 cells were also supplemented with 2.2 g/l Na2CO3, 100 μg/ml pyruvate and 5 ml non-essential amino acids (Invitrogen). All these media will be referred as ‘complete medium’ hereinafter. Cell cultures were maintained in a humidified atmosphere of 95% air/5% CO2 at 37° C.
(§3) For toxicity assays cells (5×10^4 for Jurkat cells and 10^4 for adherent cell lines) were seeded in flat-bottom 96-well plates (100 μl/well) in complete medium. Adherent cells were allowed to attach for 24 h prior to addition of cisplatin or tested compounds. Compounds were added at different concentrations in triplicate. Cells were incubated with cisplatin or compounds for 24 h and then cell proliferation was determined by a modification of the MTT-reduction method. […] Finally, formazan crystal was dissolved by adding 100 μl/well ^iPrOH (0.05 M HCl) and gently shaking. The optical density was measured at 570 nm using a 96-well multiscanner autoreader (ELISA). In some experiments total cell number and cell viability were determined by the Trypan-blue exclusion test.

Another data set has as its system plasmid pBR322 DNA. Put plainly: Plasmid (pBR322) DNA electrophoresis (mobility shift assay). The class given is binding. The following applies: 37° C., twenty hours, Tris/HCl buffer, up to drug/DNA ratio 2.0. As to the method: For these experiments, cisplatin, all uncoordinated ligands, and the starting dimeric organometallic ruthenium (II) complex [Ru(η^6-p-cymene)Cl]2 were also measured as controls. Plasmid pBR322 presents two main forms, OC (open circular or relaxed) and CCC (covalently closed or supercoiled), which display different electrophoretic mobility. Changes in the electrophoretic mobility of any of the forms upon incubation of the plasmid with a compound are usually interpreted as evidence of interaction. Generally, a drug that induces unwinding of the CCC form will produce a retardation of the electrophoretic mobility, while coiling of the OC form will result in increased mobility.
10 μL aliquots of pBR322 plasmid DNA (20 μg/mL) in buffer (5 mM Tris/HCl, 50 mM NaClO4, pH=7.39) were incubated with different concentrations of the compounds (1-4, 8, 9, [(η^6-p-cymene)Ru(μ-Cl)Cl]2) (in the range 0.25 and 4.0 metal complex:DNAbp) at 37° C. for 20 h in the dark. Samples of free DNA and cisplatin-DNA were prepared as controls. After the incubation period, the samples were loaded onto the 1% agarose gel. The samples were separated by electrophoresis for 1.5 h at 80 V in Tris-acetate/EDTA buffer (TAE). Afterwards, the gel was stained for 30 min. with a solution of GelRed Nucleic Acid stain.

For another data set, the system named is leukemia Jurkat-T. Put plainly: MTT toxicity assay, Jurkat. It is filed as cell-based, human. The following applies: 24 h incubation, mean ± SD (n = 4). As to the method: as §1
Data set [2] deals with triple negative breast MDA-MB-231. Description: MTT toxicity assay, MDA-MB-231. Conditions: read-out: IC50 MDA-MB-231, 24 h incubation, mean ± SD (n = 4). On the procedure:
Cytotoxic activity of the compounds was determined in some human cancer cell lines: leukemia Jurkat-T, lung A549, prostate DU-145, pancreas MiaPaca2, and triple negative breast MDA-MB-231, in comparison to cisplatin.
as §2, §3

In another data set the test system is lung A549. Put plainly: MTT toxicity assay, A549. Conditions: 24 h incubation, mean ± SD (n = 4). It is filed as cell-based, human. On the procedure:
as §1

The test system of data set [3] is human renal proximal tubular cells (RPTC). Description: XTT assay for RPTC cells. The class given is cell-based. The following applies: XTT assay 24 hours. As to the method:
Renal proximal tubular cells in primary culture have been described as an in vitro model to study nephrotoxicity.
The human Renal Proximal Tubule Cells (RPTC) a non-tumoral human kidney epithelial cell line (obtained from Lifeline Cell Technology, Frederick, Md., USA) were cultured in Lifeline's RenaLife Medium containing RenaLife LifeFactors with 2.4 mM L-Glutamine, 5 Î¼ g/mL rh insulin, 1.0 Î¼M epinephrine, 10 nM triiodothyronine, 0.1 Î¼ g/mL hydrocortisone hemisuccinate, 10 ng/mL rh EGF, 0.5% FBS and 5 Î¼ g/m transferrin PS (all from Lifeline Cell Technology), at 37° C. in a humidified atmosphere of 95% of air and 5% CO2 (University of Hawaii Cancer Center, Honolulu, Hi., USA). For evaluation of cell viability, cells were seeded at a concentration of 5×10^3 cells/well in 90 μl Lifeline's RenaLife complete medium into tissue culture grade 96-well flat bottom microplates (Thermo Scientific BioLite Microwell Plate, Fisher Scientific, Waltham, Mass., USA) and grown for 24 h. […] The optical density of each well (96-well plates) was quantified using EnVision Multilabel Plate Readers (Perkin Elmer, Waltham Mass., USA) at 450 nm wavelength to measure absorbance. The percentage of surviving cells was calculated from the ratio of absorbance of treated to untreated cells. […]

A further data set concerns prostate DU-145. Put plainly: MTT toxicity assay, DU-145. Conditions: 24 h incubation, mean ± SD (n = 4). The class given is cell-based, human. As to the method: as §1
The next data set is described as follows: Solubility. Conditions: 1:99 DMSO:H2O.
Data set [4] has as its target Human serum albumin (HSA) (Homo sapiens, UniProt P02768). Put plainly: Interaction with HSA by fluorescence spectroscopy (Stern-Volmer). It is filed as binding. Conditions: HSA 10 μM, phosphate buffer pH 7.4.
Protocol: The fluorescence data was analyzed by the Stern-Volmer equation.
A solution of each compound (8 mM) in DMSO was prepared and ten aliquots of 2.5 μL were added successively to a solution of HSA (10 μM) in phosphate buffer (pH=7.4) to achieve final metal complex concentrations in the range 10-100 μM. The excitation wavelength was set to 295 nm, and the emission spectra of HSA samples were recorded at room temperature in the range of 300 to 450 nm. The fluorescence intensities of all the metal compounds, the buffer and the DMSO are negligible under these conditions. The fluorescence was measured 240 s. after each addition of compound solution. The data were analyzed using the classical Stern-Volmer equation F0/F=1+KSV[Q].
The nature of data set [5]: Stability in solution by 31P and 1H NMR; air stability. It is filed as physicochemical. On the procedure: The stability of the water-soluble complexes was studied by ^31P {^1H} and ^1H NMR spectroscopy in D2O. […] However, as explained elsewhere in this specification, the biological activity of compound 2 is very fast (in 8 hours compound 2 induces 80% of apoptosis on Jurkat cells). Thus, without wishing to be bound to any particular theory, the observed biological activity is believed to mainly come from coordination compound 2 or its hydrolysis product.

Another data set relates to human cell lines. Put plainly: MTT toxicity assay, all tested human cell lines. It is filed as cell-based. The following applies: 24 h incubation. As to the method:
as §1

Another data set concerns Jurkat cells. Put plainly: Cell death analysis (PS exposure, mitochondrial membrane potential, Hoechst) in Jurkat cells.
The subject of a further data set is CT DNA. Description: DNA precipitation and quantification of ruthenium by ICP-MS. It is filed as binding, calf. The arrangement: unit not given here. As to the method:
In this experiment, 500 μM concentration DNA solutions were treated with 2 equiv of ruthenium compound 2 and compound 3 for twenty hours at 37° C. to promote DNA precipitation. The samples were then centrifuged, and the resulting pellets were analyzed for DNA and metal concentration.
Stock solutions of compounds 2 and 3 (4 mM in water) and CT DNA (11.56 mM in 5 mM Tris/HCl, 50 mM NaClO4, pH=7.39) were freshly prepared prior to use. 216 μl of DNA stock solution were diluted in 3.53 mL of buffer and 1.25 mL of compound stock solution were then added to achieve 5 mL final volume at concentrations of 500 μM in DNA and 1 mM in metal compound. Each sample was incubated at 37° C. for a period of 20 h, then cooled down to room temperature and centrifuged at 3000 rpm for 15 min. and at 4000 rpm for extra 40 min. The supernatant was separated and analyzed for CT DNA concentration by CD spectroscopy. The resulting pellet was washed twice with ice-cold ethanol (1 mL), centrifuged at RT for 1 min. at 4000 rpm, dried under high vacuum and analyzed for Ru content by ICP-MS. The total amount of DNA in each sample was 0.92 mg. Every experiment was run in duplicate.

[6] abbreviates: Jurkat cells, general caspase inhibitor z-VAD-fmk.

Sequence of Human serum albumin (HSA) (P02768 25-609): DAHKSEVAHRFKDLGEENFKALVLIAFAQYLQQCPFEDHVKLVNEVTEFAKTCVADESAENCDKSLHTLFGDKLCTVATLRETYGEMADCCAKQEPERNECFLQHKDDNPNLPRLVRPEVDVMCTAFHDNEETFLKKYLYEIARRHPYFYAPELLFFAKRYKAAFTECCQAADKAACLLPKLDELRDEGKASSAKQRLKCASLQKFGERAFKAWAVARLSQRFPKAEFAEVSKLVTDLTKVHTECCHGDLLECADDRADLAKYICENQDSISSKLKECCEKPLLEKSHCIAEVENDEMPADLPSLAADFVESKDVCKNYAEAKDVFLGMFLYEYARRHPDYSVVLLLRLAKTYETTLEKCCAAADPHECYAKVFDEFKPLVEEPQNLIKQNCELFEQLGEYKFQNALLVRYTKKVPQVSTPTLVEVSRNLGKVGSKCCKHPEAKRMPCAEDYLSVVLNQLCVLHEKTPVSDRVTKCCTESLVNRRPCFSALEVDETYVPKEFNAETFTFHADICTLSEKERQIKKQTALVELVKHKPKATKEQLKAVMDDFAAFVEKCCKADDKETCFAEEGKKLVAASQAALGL
Protocol for Jurkat cells: The mechanism of cell death induced by compound 2 and compound 3 was explored in Jurkat cells. Nuclei morphology after twenty-four hour incubation with 1 μM solution of compound 2 or compound 3 was analyzed by Hoechst staining. […] Other apoptotic parameters such as phosphatidylserine exposure and mitochondrial membrane potential dissipation were analyzed using fluorescent probes.
To determine whether caspase inhibition prevented or just delayed cell death, experiments were performed in which cells were treated with compound 2 or compound 3 for twenty-four hours in the presence of z-VAD-fmk and then washed and further cultured in fresh medium for twenty-four hours (FIG. 6). PS exposure was analyzed after the first twenty-four hours in the presence of compound+z-VAD-fmk and twenty-four hours after washing.
Apoptosis/necrosis hallmarks of cells treated with compounds 2 and 3 were analyzed by measuring mitochondrial membrane potential and/or exposure of phosphatidylserine. In some experiments the general caspase inhibitor z-VAD-fmk was added at 50 μM 1 h before compounds. For mitochondrial membrane potential determination cells (2.5×10^5 in 200 μl) after treatment with compounds were incubated at 37° C. for 15 min. in ABB (140 mM NaCl, 2.5 mM CaCl2, 10 mM Hepes/NaOH, pH 7.4) containing 60 mM tetramethylrhodamine ethyl ester (TMRE, Molecular Probes). Phosphatidylserine exposure was quantified by labeling cells with AnnexinV-PE or AnnexinV-DY636 (Invitrogen) after treatment with compounds. AnnexinV was added at a concentration of 0.5 μg/mL and cells were incubated at room temperature for 15 min. In all cases, cells were diluted to 1 ml with ABB to be analyzed by flow cytometry (FACScan, BD Bioscience, Spain).

Take `N.N.[Cl][Pt][Cl]` [Cisplatin, reference compound]: the IC50 – broadly, the point on the concentration scale where inhibition reaches its midpoint – in the data set with pancreas MiaPaca2 amounted to 76.5 ± 7.4 µM; in data set [1], 69 ± 6.7 µM; in the data set with leukemia Jurkat-T, 10.8 ± 1.2 µM; in [2] it was 131 ± 18 µM; in the data set on lung A549 it was 114 ± 9.1 µM; in data set [3] it was 46.4 ± 2.46 µM. The compound further returned a half-maximal inhibitory concentration (IC50) in the data set on prostate DU-145 of 112 ± 33 µM. In addition, the “electrophoretic mobility of plasmid pBR322 DNA” value (“electrophoretic mobility” for short) in the data set on plasmid pBR322 DNA is “able to both increase and decrease the mobility of the OC and the CCC forms”.
`Cc1ccc(C(C)C)cc1.O=C(N=P12CN3CN(CN(C3)C1)C2)c1cccc[c]1[Ru][Cl]` [Compound 9, [(η^6-p-cymene)Ru{(PTA═N—CO-2-C6H4)-κ-C,N}Cl]]: the IC50 is 54.5 ± 16 µM in the data set with pancreas MiaPaca2; 142 ± 13.1 µM in data set [1]; 17.7 ± 7.5 µM in the data set with leukemia Jurkat-T; 75.4 ± 9.8 µM in data set [2]; over 125 µM in the data set on lung A549; 126 ± 28 µM with prostate DU-145. For the same compound, the “solubility in DMSO:H2O mixtures” value in “Solubility” is “soluble in mixtures 1:99 DMSO:H2O in micromolar concentrations”.
For “[(η^6-p-cymene)Ru((Ph3P═N—CO-2-C6H4)-κ-C,N)Cl] [Compound 8]”, the IC50 in the data set on pancreas MiaPaca2 was found to be 8.2 ± 0.98 µM; in [1] it was 4.1 ± 0.06 µM; in the data set on leukemia Jurkat-T it was 2.39 ± 0.27 µM; in data set [2], 7.1 ± 0.11 µM; with lung A549, 29.9 ± 5.8 µM; with prostate DU-145, 14.2 ± 4.2 µM. The “solubility in DMSO:H2O mixtures” value in the data set “Solubility” is “soluble in mixtures 1:99 DMSO:H2O in micromolar concentrations”. In data set [4], the Stern-Volmer constant turned out to be 18100 M⁻¹. Moreover, in data set [5], the “stability in d^6-DMSO solution” value is recorded as “stable for weeks”.
With “[(η^6-p-cymene)Ru([{Cp—P(Ph2)═N—CH2-2-NC5H4}Fe(Cp)]-κ-N,N)Cl]Cl [Compound 4]”, the IC50 with pancreas MiaPaca2 is over 125 µM; in data set [1], 114 ± 14.8 µM; in the data set with leukemia Jurkat-T, 9.3 ± 0.07 µM; in [2], over 125 µM; in the data set on lung A549, over 125 µM; with prostate DU-145, 148 ± 33 µM. In addition, the “electrophoretic mobility” value in the data set on plasmid pBR322 DNA is “no mobility retardation is observed”. Moreover, the “stability in D2O (NMR spectra)” value in data set [5] was “does not change for over three days”. In data set [5], the “stability in d^6-DMSO solution” value is “stable for weeks”.
The compound [(η^6-p-cymene)Ru(μ-Cl)Cl]2 displayed an IC50 in the data set with human cell lines of over 125 µM.
Turning to “[(η^6-p-cymene)Ru{(Ph3P═N-8-C9H6N)-κ-N,N}Cl]Cl [Compound 3]”, the IC50 in the data set with pancreas MiaPaca2 worked out at 7 ± 0.4 µM; in data set [1] it was 2.2 ± 1.1 µM; in the data set on leukemia Jurkat-T, 0.9 ± 0.32 µM; in [2], 16.2 ± 0.9 µM; in the data set with lung A549, 43.3 ± 8 µM; with prostate DU-145, 6.6 ± 0.85 µM. Further, the “electrophoretic mobility” value in the data set with plasmid pBR322 DNA is on record as “no mobility retardation is observed”. Besides, in data set [5], the “stability in D2O (NMR spectra)” value is reported as “does not change significantly over time”. Further, the “stability in d^6-DMSO solution” value in data set [5] was “stable for weeks”. The “AnnexinV+ cells, compound + z-VAD-fmk” value in the data set with Jurkat cells (24 h with compound + z-VAD-fmk, then 24 h in fresh medium after washing) was found to be 32%. Further, the “PS exposure with z-VAD-fmk” value with Jurkat cells (setting [6]) is recorded as “completely abrogated”. For the same compound, in the data set with Jurkat cells (setting [6]), the “Δψm loss with z-VAD-fmk” value stood at 20%. In the data set on Jurkat cells (Jurkat cells, without z-VAD-fmk), the Δψm loss is given as 40%. Further, the “Nuclei morphology (Hoechst staining)” value in the data set with Jurkat cells (Jurkat, 24 h incubation with 1 μM solution) is “chromatin condensation and fragmentation”. The “AnnexinV+ cells, compound alone for twenty-four hours” value with Jurkat cells (compound alone, 24 h) was found to be 28%. For the same compound, the “ruthenium content in DNA precipitate” value in the data set on CT DNA is 2.43±0.18.
“[(η^6-p-cymene)Ru{(Ph3P═N—CO-2-N—C5H4)-κ-N,O}Cl](PF6) [Compound 1]”: the IC50 with pancreas MiaPaca2 was 2.4 ± 0.18 µM; in data set [1] it was 2.8 ± 0.2 µM; in the data set on leukemia Jurkat-T, 1.1 ± 0.14 µM; in [2], 4.91 ± 2.7 µM; in the data set on lung A549, 9.9 ± 1.9 µM; in the data set with prostate DU-145, 1.89 ± 0.64 µM. In addition, the “electrophoretic mobility” value with plasmid pBR322 DNA is listed as “induce retardation of the mobility of the CCC form”. Moreover, the “stability in d^6-DMSO solution” value in data set [5] is given as “stable for weeks”.
